Laboratory results published in US9968570B2, “Compositions and methods for treating cancer” (Chemo-Enhanced LLC, priority 2013, dated 2018).

How the values were obtained:
CaOV3 cells = experiment: Confocal microscopy of C6-NBD ceramide entry into ovarian cancer cells; format: cell-based, human; conditions: for effect on C6 ceramide entry into the cells: CaOV3 cells pretreated with inhibitor, C6-NBD-ceramide; for effect on polarized entry of C6 ceramide: CaOV3 cells pretreated 1 h, then C6-NBD
Method: (A and C) CaOV3 cells were cultured in 8-well chamber slides and treated with C6-NBD ceramide (6 μg/ml). (B) The cells were fixed with formaldehyde at various times following treatment or were treated with the indicated doses of C6-NBD-ceramide, with or without fixation. The cells were processed and observed under a confocal microscope.
CaOV3 cells were cultured in 8-well chamber slides and treated with or without (A) a lipid raft/caveolae inhibitor or with (B) water channel inhibitors, CuSO4 or NiCl2. The cells were fixed with formaldehyde, processed and observed under a confocal microscope.
(A) CaOV3 cells were cultured in 8-well chamber slides, pretreated with taxol or doxorubicin for 1 h and then treated with C6-NBD-ceramide for 5 or 15 min. The cells were fixed with formaldehyde and processed for confocal microscopy. (B) The cells were pretreated with taxol and then C6-NBD-ceramide and processed for confocal microscopy without fixation.
The cells were plated in eight-well chamber slides (Lab-Tek; Nalge Nunc International, Naperville, Ill., USA) and treated with various reagents, including C6-NBD ceramide, taxol and CuSO4. Next, the cells were either left untreated or were fixed for 20 min in fresh 4% paraformaldehyde-PBS. The cell nuclei were also stained with Hoechst (1 μg/ml in PBS) for 10 min. The slides were mounted with anti-fade (Life Technologies, Grand Island, N.Y., USA) and stored in the dark until viewing. The samples were observed under a confocal microscope and images were captured by Zen 2009 Light Edition (Carl Zeiss AG, Oberkochen, Germany).

[1] = test system: L3.6 pancreatic cancer cells; experiment: MTT cell viability assay, C6-Ceramide / chemo agents / pathway inhibitors; format: cell-based, human; conditions: L3.6 (FIG. 6A), basic DMEM; Gemcitabine 3 μg/ml, Taxol 15 ug/ml, C6-Ceramide 10 ug/ml, Cetuximab 10 ug/ml
MIA-PaCa2 (MIA) cells = experiment: MTT cell viability assay, C6-Ceramide with chemo agents; format: cell-based, human; conditions: MIA cells (FIG. 6C), basic DMEM; Gemcitabine 3 μg/ml, Taxol 15 ug/ml, C6-Ceramide 10 ug/ml, Cetuximab 10 ug/ml
Method: (§1) Mitomycin C (10 ug/ml) was always present in the media to prevent cell proliferation from occurring.
(§2) Cell viability was measured by the 3-(4,5-dimethylthiazol-2-yl)-2,5-diphenyltetrazolium bromide (MTT) method, as described previously (Cao, C., et al. Sci Signal, 2: ra17, 2009; and Vanhaesebroeck, B., et al. Annu Rev Biochem, 70: 535-602, 2001). Briefly, the cells were collected and seeded in 96-well plate at a density of 2×10^5 cells/cm^2. Different seeding densities were optimized at the beginning of the experiments. After overnight incubation cells were exposed to fresh medium containing indicated reagents at 37° C. After incubation for different time periods, 20 μl of MTT tetrazolium (Sigma, St. Louis, Mo.) salt dissolved in Hank's balanced salt solution at a concentration of 5 mg/ml was added to each well and incubated in a CO2 incubator for an additional 4 hours. The medium was subsequently aspirated from each well and 150 μl of DMSO (Sigma, St. Louis, Mo.) was added to dissolve formazan crystals and the absorbance of each well was obtained using a Dynatech MR5000 plate reader at a test wavelength of 490 nm with a reference wavelength of 630 nm.

Panc-1 = experiment: as above; format: cell-based, human; conditions: Panc-1 (FIG. 6B), basic DMEM; Gemcitabine 3 μg/ml, Taxol 15 ug/ml, C6-Ceramide 10 ug/ml, Cetuximab 10 ug/ml
Method: as §1, §2

L3.6 pancreatic cells = format: in vivo; conditions: for tumor volume and mouse survival: Taxol 3 mg/kg, C6-Ceramide 10 mg/kg, I.P. 3x/wk, vs control treatment group
Method: SCID/Beige/Taconic nude male mice, 22-25 g, 6-8 weeks old were ear tagged and randomized into 4 different groups (Control, Ceramide, Paclitaxel, Ceramide+Paclitaxel) of 5 mice each prior to inoculation s.c. with 2×10^6 L3.6 cells in a volume 0.1 ml into the internal surface of the right thigh. Treatment was started 4 days after L3.6 cell injection with thrice weekly (3×/wk) intraperitoneal (I.P.) injections of Paclitaxel 3.0 mg/kg with or without C6-Ceramide (10 mg/kg) for 2 weeks. Mice survival (A and C), tumor volume (in cm^3) (B), mice body weight (in grams) were recorded (E). Average rate of tumor development was calculated by total tumor volume dividing by total number of days monitored (D).
FIG. 7A and FIG. 7D: SCID/Beige/Taconic nude male mice, 22-25 g, 6-8 weeks old were ear tagged and randomized into 4 different groups (Control, Ceramide, Gemcitabine, Ceramide+Gemcitabine) combining 5 mice each prior to inoculation s.c. with 2×10^6 L3.6 cells in a volume 0.1 ml into the internal surface of the right thigh. Treatment was started 4 days after L3.6 cell injection with thrice weekly (3×/wk) intraperitoneal (I.P.) injections of Gemcitabine (two doses: […]) with or without C6-Ceramide ([…]) for 2 weeks. […] Mice survival (A, B and E) and tumor volume (in cm^3) (C and D) were recorded (E). In (E), the left bar indicates treatment without C6, and the right bar indicates treatment with C6.
SCID/Beige/Taconic male mice were inoculated with 2×10^6 L3.6 pancreatic cells and begun treatment 4 days post tumor implant with thrice weekly (3×/wk) intraperitoneal (I.P.) injections of Paclitaxel (Taxol) 3.0 mg/kg or Gemcitabine (Gem) 10 mg/kg—after treatment and were autopsied when near death (as per IRB committee). Mouse survival, tumor volume (in cm^3), and body weight (in grams) were recorded. Average rate of tumor development was calculated by dividing total tumor volume by total number of days monitored.

AKT/mTORC1 and ERK = experiment: Western blot of AKT/mTORC1 and ERK activation in L3.6 cells; format: cell-based, human; conditions: 2-6 h, Gemcitabine 1 μg/ml, Taxol 1.5 μg/ml, C6 Ceramide 10 μg/ml
From the text: Antibody binding was detected with the enhanced chemiluminescence (ECL) detection system (Amersham Biosciences, Piscataway, N.J.).

[2] = test system: L3.6 pancreatic cancer cells; experiment: MTT cell viability assay, C6-Ceramide / chemo agents / pathway inhibitors; format: cell-based, human; conditions: 48 h; for cell death: MTT; for L3.6 cell viability, agent alone: LY 294002 1 μM, rapamycin 100 nM, U0126 1 μg/ml, Gemcitabine 1 μg/ml
Method: L3.6 pancreatic cancer cells, cultured either in basic DMEM medium or with 10% FBS, were treated with indicated doses of Taxol in the presence or absence of C6 Ceramide (10 μg/ml) for 48 hours, cell viability was detected by MTT assay (FIGS. 4A and B). L3.6 cells, cultured either in basic DMEM medium or with 10% FBS, were treated with indicated dose of C6 Ceramide in the presence or absence of Taxol (1.5 μg/ml) for 48 hours, cell viability was detected by MTT assay as described (FIGS. 4C and D). Mitomycin C (10 μg/ml) was always present in the media to prevent cell proliferation from occurring. The data represent the mean±SD of at least triplicate experiments. *P<0.05 versus group without C6 Ceramide presents (FIGS. 4A and B). **P<0.05 versus group without Taxol presents (C and D).
as §1
FIG. 9 depicts data showing the effect of survival pathway inhibitors on cytotoxicity of Taxol and Gemcitabine in L3.6 pancreatic tumor cells. L3.6 cells were pretreated with various inhibitors including PI3K/AKT inhibitor LY 294002 (LY, 1 μM), mTORC1 inhibitor rapamycin (100 nM), MEK/ERK inhibitor U0126 (1 μg/ml), alone or in the presence of Taxol (1.5 μg/ml) or Gemcitabine (1 μg/ml) for 48 hours, with cell death detected 48 hours later (FIG. 9, left). Effects of various inhibitors as mentioned above on AKT/mTORC1 and ERK activation were also examined by Western blots using commercially available antibodies (FIG. 9, right). *P<0.05 versus group without C6 Ceramide presents. […] In FIG. 9, left panel, the DMSO=left bar; LY294002=second left bar; U0126=middle bar; Rapamycin=second right bar; and LY+U0126=right bar.
as §2

[3] = L3.6, basic DMEM medium, Taxol 1.5 ug/ml, C6-ceramide 10 ug/ml
[4] = L3.6 cultured in 10% FBS, C6-Ceramide 2.5 μg/ml, Taxol 1.5 μg/ml

SMILES	effect on C6 ceramide entry into the cells (CaOV3 cells)	cell death [1]	cell death (MIA-PaCa2 (MIA) cells)	cell death (Panc-1)	L3.6 cell viability, agent alone ([2]; Taxol 1.5 μg/ml)	further results
O=S(=O)([O-])[O-].[Cu+2] [CuSO4]	inhibits C6 ceramide entry into the cells					
CCCCC[C@@H](O)[C@H]1C(=O)O[C@H](C)[C@@H](O)/C=C/C=C/C=C/C=C/C=C(\C)[C@@H](O)C[C@H](O)C[C@H](O)C[C@H](O)C[C@H](O)C[C@H](O)C[C@@H]1O [Filipin]	inhibited the C6 ceramide entry into the CaOV3 cells					
CCCCCCCCCCCCC/C=C/[C@@H](O)[C@H](CO)NC(=O)CCCCC [Fraction C6-ceramide, N-hexanoyl-D-sphingosine]		None of Gemcitabine (3 μg/ml), Taxol (15 ug/ml) or C6-Ceramide (10 ug/ml) alone had a significant effect	None of Gemcitabine (3 μg/ml), Taxol (15 ug/ml) or C6-Ceramide (10 ug/ml) alone had a significant effect	None of Gemcitabine (3 μg/ml), Taxol (15 ug/ml) or C6-Ceramide (10 ug/ml) alone had a significant effect		tumor volume and mouse survival (L3.6 pancreatic cells): minimal effects on tumor volume and mouse survival; AKT/mTORC1 and ERK activation (AKT/mTORC1 and ERK): moderate inhibition; cell death [2, 3]: no effect; cell death [2, 4]: neither of these two alone had any measurable effect
N#CC(=C(N)Sc1ccccc1N)C(C#N)=C(N)Sc1ccccc1N [Fraction U0126, 1,4-diamino-2,3-dicyano-1,4-bis[2-aminophenylthio]butadiene]					little or no significant effect	
Nc1ccn([C@@H]2O[C@H](CO)[C@@H](O)C2(F)F)c(=O)n1 [Gemcitabine, gemcitabine]		None of Gemcitabine (3 μg/ml), Taxol (15 ug/ml) or C6-Ceramide (10 ug/ml) alone had a significant effect	None of Gemcitabine (3 μg/ml), Taxol (15 ug/ml) or C6-Ceramide (10 ug/ml) alone had a significant effect	None of Gemcitabine (3 μg/ml), Taxol (15 ug/ml) or C6-Ceramide (10 ug/ml) alone had a significant effect	little or no significant effect	survival and tumor growth (L3.6 pancreatic cells; Gemcitabine 5 mg/kg and 10 mg/kg, C6-ceramide 10 mg/kg, I.P. 3x/wk for 2 weeks): limited effect on survival and tumor growth; AKT/mTORC1 and ERK activation (AKT/mTORC1 and ERK): no effect
[Cl][Ni][Cl] [NiCl2]	does not					
CC(=O)O[C@H]1C(=O)[C@@]2(C)[C@H]([C@H](OC(=O)c3ccccc3)[C@]3(O)C[C@H](OC(=O)[C@H](O)[C@@H](NC(=O)c4ccccc4)c4ccccc4)C(C)=C1C3(C)C)[C@]1(OC(C)=O)CO[C@@H]1C[C@@H]2O [Taxol, paclitaxel]		None of Gemcitabine (3 μg/ml), Taxol (15 ug/ml) or C6-Ceramide (10 ug/ml) alone had a significant effect	None of Gemcitabine (3 μg/ml), Taxol (15 ug/ml) or C6-Ceramide (10 ug/ml) alone had a significant effect	None of Gemcitabine (3 μg/ml), Taxol (15 ug/ml) or C6-Ceramide (10 ug/ml) alone had a significant effect	little or no significant effect	tumor volume and mouse survival (L3.6 pancreatic cells): minimal effects on tumor volume and mouse survival; effect on polarized entry of C6 ceramide (CaOV3 cells): disrupted the polarized pattern of C6 entry; cell death [2, 3]: 30%; cell death [2, 4]: neither of these two alone had any measurable effect
COc1cccc2c1C(=O)c1c(O)c3c(c(O)c1C2=O)C[C@@](O)(C(=O)CO)C[C@@H]3O[C@H]1C[C@H](N)[C@H](O)[C@H](C)O1 [doxorubicin]						effect on polarized entry of C6 ceramide (CaOV3 cells): had no such effect
